From patent US20090186915A1, “Compositions and methods for treatment of glioblastoma, gliosarcoma, NSCLC, and head and neck cancer” (Unibioscreen S. A., priority 2006, published 2009)

What was measured:
[1] = tested on: CXCL1, CXCL2, CXCL3, CXCL5, CXCL6, and CXCL8 chemokines; test: CXCL chemokine expression (microarray and ELISA), PC-3; assay type: cell-based, human; details: 1 μM five times a week
Method: Two different Quantikine ELISA kits (R&D Systems, Abingdon, UK) for the quantification of human CXCL1 and CXCL8 (IL-8) were used in this study in accordance with the manufacturer's instructions. Cell culture supernatants were collected after different treatments and periods, with multiple aliquots taken and stored at −20° C. until analysis.

[2] = tested on: DU-145; test: Apoptosis by Annexin V flow cytometry, DU-145; assay type: cell-based, human
Method: We used flow cytometry (according to the protocol found in Mijatovic et al. Neoplasia 2006) to determine the percentages of PC-3 and DU-145 positive cells for both Annexin V and propidium iodide and we observed that a maximum of 10% only of PC-3 or DU-145 cells underwent apoptotic processes following a treatment with 10 μM of the compound produced according to example 2 or example 7.
The determination of the percentage of cells undergoing apoptosis was performed using an Annexin V-FITC Apoptosis Detection Kit (Sigma) following the manufacturer's instructions. Each sample was evaluated in triplicate.

[3] = tested on: human A549 NSCLC orthotopic
Method: The purpose of the present study was to evaluate the in vivo efficacy of UNBS5162 on human A549 NSCLC orthotopic nude mice model. The endpoint in this experiment was the survival period of the tumor-bearing mice following treatment, as indicated.
The experiment comprised 6 groups of II mice, one group with mice receiving the vehicle only (Ct group) and 5 groups receiving the treatments as indicated in the Table 13. UNBS5162 was dosed i.v. at 10 mg/kg (in lactic acid vehicle). Taxol (Paclitaxel 6 mg/mL, Bristol-Myers Squibb) was dosed i.v. at 20 mg/kg.

[4] = UNBS5162 mouse pharmacokinetics; assay type: in vivo
Method: Mouse in-life phase. Female B6D2F1 mouse (Charles River, L'Arbresle, France) were administered a single i.v. bolus injection of 20 mg/kg or a single oral dose of 80-mg/kg UNBS5162 as a solution (formulated in 0.5% lactic acid). Dosing volume was 10 ml/kg body weight. The i.v. injection was performed through the tail vein, and the oral dose was given by gavage. Blood sampling for pharmacokinetic analysis was performed by cardiac puncture after Nembutal intraperitoneal injection. The blood was collected over Li-heparin at 0.05, 0.08, 0.17, 0.25, 0.33, 0.5, 0.75, 1, 2, 4, 7, 16, and 24 hours after dose. Five animals were used per time point. Blood was kept on ice for a maximum of 2 hours before isolating plasma by centrifugation, and the resulting plasma was stored at approximately −70° C. until analysis. The samples were subsequently analyzed for UNBS5162 by liquid chromatography-mass spectrometry.
Plasma concentrations of UNBS5162 were determined using liquid chromatography-mass spectrometry. […] Briefly, solid phase extraction was performed using SPE Oasis HLB columns of 1 ml (Waters). UNBS5162 and the internal standard UNBS5181 were eluted using methanol, evaporated to dryness and reconstituted in starting solvent, a mixture (90:10 v/v) of 0.05% aqueous formic acid (mobile phase A) and 0.05% formic acid in acetonitrile (mobile phase B). Liquid chromatographic separation was effected using an Atlantis T3 column (50×2.1 mm; 3 μm), with an isocratic method with a 90:10 v/v ratio of mobile phases A/B at a flow rate of 250 μl/min for 12.5 minutes, followed by 2 minutes of 100% mobile phase B and then 4.5 minutes reconditioning with the starting solvent at a flow rate of 250 μl/min. Compound detection and quantification were performed by positive ion electrospray ionization on a QToF Ultima mass spectrometer (Micromass, Manchester, UK).

[5] = tested on: murine and human hematopoietic stem and progenitor cells; test: HALO hematotoxicity assay, overall statement; assay type: cell-based
Method: Investigation of the hematotoxic potential of UNBS5162 was undertaken by HemoGenix (Colorado Springs, Colo.). The effects of UNBS5162 on stem and progenitor cell populations from murine and human bone marrow were assessed using HALO (Hematopoietic/Hematotoxicity Assay through Luminescence Output) technology. Stem and hematopoietic progenitor cell populations were isolated from mouse and human bone marrow samples, plated at a concentration of 1.0×10^4 cells/well and cultured for 5 and 7 days, respectively, in the presence of growth factors and increasing concentrations of UNBS5162 ranging from 0.5 nM to 50 μM. The proliferative or growth potential of cell populations was determined from intracellular ATP (iATP) concentrations and a luciferin/luciferase bioluminescence signal detection system. All samples were assayed in eight replicates. The results are presented as estimated inhibitory concentration (IC) values.

[6] = tested on: PC-3; test: Autophagy: acidic vesicular organelles, acridine orange flow cytometry, PC-3; assay type: cell-based, human; details: red fluorescence, up to 10 μM
Method: The cytoplasm and nucleus fluoresce green in acridine orange-stained cells, and the acidic compartments fluoresce red. The intensity of the red fluorescence is proportional to the degree of acidity and the volume of acidic vesicular organelles, including autophagic vacuoles. To quantify the development of acidic vesicular organelles, the cells were stained with acridine orange for 15 minutes and removed from the plate with trypsinization. Cells were then analyzed by flow cytometry. Each sample was evaluated in triplicate.

[7] = tested on: MCF-7; test: MTT colorimetric assay, MCF-7 cells; assay type: cell-based; details: Homo sapiens, MCF7, 72 h, 3 days of culturing, mean of six determinations, read-out: IC50 (μM) In Vitro Growth Inhibition
Method: The overall growth of human cancer cell lines was determined by means of the calorimetric MTT (3-[4,5-dimethylthiazol-2-yl]-diphenyl tetrazolium bromide; Sigma) assay, as detailed previously.

[8] = tested on: DU-145; test: Cell cycle kinetics by flow cytometry (PI), DU-145; assay type: cell-based, human; details: 1 μM
Method: The cell cycle kinetics of prostate cancer cells left untreated or incubated with UNBS5162 were determined by flow cytometry analysis of propidium iodide (PI) nuclear staining, using previously detailed methodology. Each sample was evaluated in triplicate. Flow cytometry was undertaken using an Epics XL.MCL flow cytometer and the FACScan/CellQuest software system (Becton Dickinson, Miami, Fla.).

[9] = B6D2F1, mouse, plasma, iv, female mice, i.v. 20 mg/kg single
[10] = B6D2F1, mouse, plasma, po, female mice, p.o. 80 mg/kg single

With `CN(C)CCN1C(=O)c2cccc3cc(NC(N)=O)cc(c23)C1=O` [UNBS5162, N-{2-[2-(dimethylamino)ethyl]-1,3-dioxo-2,3-dihydro-1H-benzo[de]isoquinolin-5-yl}urea] the “expression of proangiogenic CXCL chemokines (mRNA and protein)” value [1] was “dramatically decreased”, the “cells undergoing apoptotic processes (Annexin V and propidium iodide positive)” value ([2]; 10 μM) was no more than 10% and the “induction of real (early) apoptosis” value ([2]; flow cytometry) was “does not induce real (early) apoptosis”. The “late apoptotic and necrotic events” value ([2]; flow cytometry) was “induces late apoptotic and necrotic events”, the “survival of A549 NSCLC xenograft-bearing mice” value ([3]; UNBS5162 10 mg/kg i.v. in combination with Taxol 20 mg/kg i.v.) was “significantly increased the survival” and the “T/C (%)” value ([3]; UNBS5162 i.v. 10 mg/kg (3i × 6w)) was 102%. For the same compound, the AUC(0-inf) [4, 9] was 5770 ng·h/mL, the Cmax [4, 9] was 12000 ng/mL and the Vd [4, 9] was 18.9 L/kg. The half-life [4, 9] was 3.8 h, the bioavailability ([4]; B6D2F1, mouse, plasma, oral, female mice, p.o. 80 mg/kg versus i.v. 20 mg/kg, read-out: F (absolute bioavailability)) was 3.84% and the AUC(0-inf) [4, 10] was 886 ng·h/mL. For the same compound, the Cmax [4, 10] was 510 ng/mL, the Tmax [4, 10] was 0.3 h and the Cl ([4]; female mice, i.v. 20 mg/kg single) was 3.47 L/h per kilogram. The “time for which 1-μM plasma levels are sustained” value ([4]; mice, post-i.v. 20 mg/kg) was no more than 2 h, the “time for which plasma levels of 10 μM are maintained” value ([4]; mice, post-i.v. 20 mg/kg) was “approximately 30 minutes” and the “concentrations that were toxic (inhibited proliferation)” value [5] was “higher than 1 μM”. The “pro-autophagic effects (acidic vesicular organelles)” value [6] was “had a proautophagic effect”, the “pro-autophagic effects (acidic vesicular organelles)” value ([6]; listed as example 2) was “pro-autophagic effects” and the IC50 [7] was 46.5 µM. For the same compound, the cell cycle kinetics [8] was “did not significantly (P>0.05) modify”.
